Tests used:
[1] = system: elav-Gal4GS > UAS-hTDP-43 transgenic flies; experiment: Lifespan of transgenic hTDP-43 Drosophila; type: in vivo; conditions: 100 nM compound, log rank test versus DMSO
CDC like kinase 4 (CLK4) = CDC like kinase 4 (CLK4) (Homo sapiens, UniProt Q9HAZ1); experiment: KinomeScan screening, CLK4; type: binding; conditions: 10 μM
CK-1γ2 = CK-1γ2 (Homo sapiens, UniProt P78368); experiment: KinomeScan screening, CK-1γ2; type: binding; conditions: 10 μM
[2] = target: T1, myosin light chain kinase 3 (MLCK) (Homo sapiens, UniProt Q32MK0); experiment: KinomeScan screening, MLCK; type: binding; conditions: 10 μM
T1 sequence (Q32MK0 1-819): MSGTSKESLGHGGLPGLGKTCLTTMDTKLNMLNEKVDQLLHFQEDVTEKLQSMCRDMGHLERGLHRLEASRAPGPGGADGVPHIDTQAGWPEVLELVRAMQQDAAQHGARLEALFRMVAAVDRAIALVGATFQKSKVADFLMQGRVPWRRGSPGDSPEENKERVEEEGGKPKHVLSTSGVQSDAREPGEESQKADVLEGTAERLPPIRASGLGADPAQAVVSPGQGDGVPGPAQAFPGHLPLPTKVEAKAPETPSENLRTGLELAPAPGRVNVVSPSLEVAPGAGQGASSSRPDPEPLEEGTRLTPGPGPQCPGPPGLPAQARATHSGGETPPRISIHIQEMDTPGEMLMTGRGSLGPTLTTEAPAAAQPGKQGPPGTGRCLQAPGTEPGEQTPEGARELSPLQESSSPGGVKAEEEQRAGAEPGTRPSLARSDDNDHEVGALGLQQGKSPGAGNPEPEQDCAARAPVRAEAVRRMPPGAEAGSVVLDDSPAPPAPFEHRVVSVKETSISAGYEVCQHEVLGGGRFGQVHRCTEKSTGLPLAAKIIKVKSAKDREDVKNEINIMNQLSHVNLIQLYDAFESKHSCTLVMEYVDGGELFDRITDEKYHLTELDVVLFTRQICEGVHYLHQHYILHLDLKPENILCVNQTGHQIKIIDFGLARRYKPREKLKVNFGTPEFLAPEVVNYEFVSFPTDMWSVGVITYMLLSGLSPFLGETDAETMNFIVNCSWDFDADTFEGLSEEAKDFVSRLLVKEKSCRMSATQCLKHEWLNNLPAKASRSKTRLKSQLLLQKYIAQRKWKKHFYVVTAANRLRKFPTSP

CK-1α1 = CK-1α1 (Homo sapiens, UniProt P48729); experiment: KinomeScan screening, CK-1α1; type: binding; conditions: 10 μM
CK-1ε = CK-1ε (Homo sapiens, UniProt P49674); experiment: KinomeScan screening, CK-1ε; type: binding; conditions: 10 μM
Chain of CK-1ε (P49674 whole entry): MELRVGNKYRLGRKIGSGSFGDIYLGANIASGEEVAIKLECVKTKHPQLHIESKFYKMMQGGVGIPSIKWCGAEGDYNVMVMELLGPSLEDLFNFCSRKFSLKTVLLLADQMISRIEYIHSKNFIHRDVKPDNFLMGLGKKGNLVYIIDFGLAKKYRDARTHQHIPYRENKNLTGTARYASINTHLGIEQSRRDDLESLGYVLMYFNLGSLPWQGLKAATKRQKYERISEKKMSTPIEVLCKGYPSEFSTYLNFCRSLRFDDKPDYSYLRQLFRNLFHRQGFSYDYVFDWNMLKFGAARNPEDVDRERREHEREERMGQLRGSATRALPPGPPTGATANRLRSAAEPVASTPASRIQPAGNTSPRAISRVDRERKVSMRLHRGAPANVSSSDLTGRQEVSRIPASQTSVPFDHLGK

DYRK1A = DYRK1A (Homo sapiens, UniProt Q13627); experiment: KinomeScan screening, DYRK1A; type: binding; conditions: 10 μM
[3] = system: panel of 456 protein kinases; experiment: KinomeScan selectivity screening on a kinase panel; type: binding, human; conditions: 10 μM, 456 kinases; number of kinases bound divided by distinct kinases tested
CK-1δ [4] = target: T2, CK-1δ (Homo sapiens, UniProt P48730); experiment: Kinetic studies on CK-1δ; type: biochemical; conditions: ATP 1 to 50 μM, casein 12.5 μM, double reciprocal plot
T2 sequence (P48730 whole entry): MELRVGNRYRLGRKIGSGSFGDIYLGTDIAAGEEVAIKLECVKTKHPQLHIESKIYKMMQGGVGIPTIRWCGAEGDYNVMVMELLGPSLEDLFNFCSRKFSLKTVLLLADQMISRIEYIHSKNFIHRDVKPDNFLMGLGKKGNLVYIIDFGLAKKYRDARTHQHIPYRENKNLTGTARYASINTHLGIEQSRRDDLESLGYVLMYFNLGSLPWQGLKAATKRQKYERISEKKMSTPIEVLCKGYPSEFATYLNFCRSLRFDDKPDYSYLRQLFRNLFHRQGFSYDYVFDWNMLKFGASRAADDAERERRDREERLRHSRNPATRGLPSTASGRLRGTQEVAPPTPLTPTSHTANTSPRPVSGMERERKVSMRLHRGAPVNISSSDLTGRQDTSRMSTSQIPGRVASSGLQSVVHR

[5] = target: fms-related tyrosine kinase 1 (FLT1) (Homo sapiens, UniProt P17948); experiment: KinomeScan screening, FLT1; type: binding; conditions: 10 μM
Chain of fms-related tyrosine kinase 1 (FLT1) (P17948 27-1338): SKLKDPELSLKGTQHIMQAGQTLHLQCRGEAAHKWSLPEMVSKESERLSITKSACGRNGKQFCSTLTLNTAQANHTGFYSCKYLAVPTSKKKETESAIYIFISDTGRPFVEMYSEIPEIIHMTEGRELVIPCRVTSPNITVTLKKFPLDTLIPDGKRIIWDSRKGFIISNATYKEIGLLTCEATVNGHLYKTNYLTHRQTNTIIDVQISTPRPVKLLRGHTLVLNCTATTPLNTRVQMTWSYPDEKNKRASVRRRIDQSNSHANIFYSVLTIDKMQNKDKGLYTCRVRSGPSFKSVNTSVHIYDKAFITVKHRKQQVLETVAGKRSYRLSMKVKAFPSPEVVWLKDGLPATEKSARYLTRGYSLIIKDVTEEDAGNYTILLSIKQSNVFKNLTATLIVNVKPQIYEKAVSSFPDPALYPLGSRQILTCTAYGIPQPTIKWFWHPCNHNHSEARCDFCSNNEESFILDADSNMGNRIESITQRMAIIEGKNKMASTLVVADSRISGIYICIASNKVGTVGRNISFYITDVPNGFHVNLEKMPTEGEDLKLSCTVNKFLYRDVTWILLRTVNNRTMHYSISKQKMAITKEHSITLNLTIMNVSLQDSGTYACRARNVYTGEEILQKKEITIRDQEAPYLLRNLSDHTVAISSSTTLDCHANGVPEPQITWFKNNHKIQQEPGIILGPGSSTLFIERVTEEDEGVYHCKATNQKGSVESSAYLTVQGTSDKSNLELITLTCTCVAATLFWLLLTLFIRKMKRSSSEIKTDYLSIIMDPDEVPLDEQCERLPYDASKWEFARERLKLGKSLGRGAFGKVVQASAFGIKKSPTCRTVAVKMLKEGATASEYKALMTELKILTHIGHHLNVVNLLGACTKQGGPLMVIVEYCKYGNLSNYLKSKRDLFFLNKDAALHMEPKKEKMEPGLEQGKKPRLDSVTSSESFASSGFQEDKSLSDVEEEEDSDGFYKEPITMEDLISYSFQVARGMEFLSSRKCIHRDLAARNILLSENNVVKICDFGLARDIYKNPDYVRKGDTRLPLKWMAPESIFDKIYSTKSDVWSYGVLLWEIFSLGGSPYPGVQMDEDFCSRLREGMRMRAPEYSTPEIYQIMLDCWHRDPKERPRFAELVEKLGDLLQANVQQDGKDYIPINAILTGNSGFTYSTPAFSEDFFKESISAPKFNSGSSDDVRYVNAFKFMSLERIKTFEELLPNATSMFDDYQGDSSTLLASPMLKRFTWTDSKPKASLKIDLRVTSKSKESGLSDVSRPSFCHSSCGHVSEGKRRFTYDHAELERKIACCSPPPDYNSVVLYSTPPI

CDC like kinase 1 (CLK1) = CDC like kinase 1 (CLK1) (Homo sapiens, UniProt P49759); experiment: KinomeScan screening, CLK1; type: binding; conditions: 10 μM
Chain of CDC like kinase 1 (CLK1) (P49759 whole entry): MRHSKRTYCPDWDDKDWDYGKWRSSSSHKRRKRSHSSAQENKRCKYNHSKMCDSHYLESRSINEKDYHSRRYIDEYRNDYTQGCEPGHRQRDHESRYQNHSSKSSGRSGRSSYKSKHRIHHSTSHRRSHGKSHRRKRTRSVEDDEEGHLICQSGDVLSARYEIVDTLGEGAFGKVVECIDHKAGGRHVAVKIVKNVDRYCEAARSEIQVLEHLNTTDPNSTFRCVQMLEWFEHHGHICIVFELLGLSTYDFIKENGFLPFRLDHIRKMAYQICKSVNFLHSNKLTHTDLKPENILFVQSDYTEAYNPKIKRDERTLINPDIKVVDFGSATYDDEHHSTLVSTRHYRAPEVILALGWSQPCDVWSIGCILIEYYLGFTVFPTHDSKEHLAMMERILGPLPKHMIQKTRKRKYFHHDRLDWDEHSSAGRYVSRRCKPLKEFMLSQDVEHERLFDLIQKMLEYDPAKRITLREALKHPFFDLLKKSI

DYRK1B = DYRK1B (Homo sapiens, UniProt Q9Y463); experiment: KinomeScan screening, DYRK1B; type: binding; conditions: 10 μM
Chain of DYRK1B (Q9Y463 whole entry): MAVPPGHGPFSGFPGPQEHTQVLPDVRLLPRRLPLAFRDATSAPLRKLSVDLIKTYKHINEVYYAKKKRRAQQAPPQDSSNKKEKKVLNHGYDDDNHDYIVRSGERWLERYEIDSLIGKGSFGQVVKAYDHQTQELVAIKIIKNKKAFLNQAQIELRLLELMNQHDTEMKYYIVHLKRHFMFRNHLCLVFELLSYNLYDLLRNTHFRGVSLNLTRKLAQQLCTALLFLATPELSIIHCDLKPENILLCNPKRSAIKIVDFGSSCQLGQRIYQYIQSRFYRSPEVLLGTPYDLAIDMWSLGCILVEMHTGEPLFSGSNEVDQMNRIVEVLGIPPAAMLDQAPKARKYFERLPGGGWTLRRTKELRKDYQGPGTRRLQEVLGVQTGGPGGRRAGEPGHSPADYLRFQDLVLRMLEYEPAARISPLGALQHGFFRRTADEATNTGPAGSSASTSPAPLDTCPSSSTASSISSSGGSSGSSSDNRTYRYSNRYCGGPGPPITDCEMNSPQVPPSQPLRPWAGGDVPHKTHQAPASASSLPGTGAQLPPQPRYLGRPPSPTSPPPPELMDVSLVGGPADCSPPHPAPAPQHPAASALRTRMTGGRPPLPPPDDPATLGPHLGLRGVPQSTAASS

[6] = target: platelet-derived growth factor receptor (PDGFRB) (Homo sapiens, UniProt P09619); experiment: KinomeScan screening, PDGFRB; type: binding; conditions: 10 μM
Chain of platelet-derived growth factor receptor (PDGFRB) (P09619 33-1106): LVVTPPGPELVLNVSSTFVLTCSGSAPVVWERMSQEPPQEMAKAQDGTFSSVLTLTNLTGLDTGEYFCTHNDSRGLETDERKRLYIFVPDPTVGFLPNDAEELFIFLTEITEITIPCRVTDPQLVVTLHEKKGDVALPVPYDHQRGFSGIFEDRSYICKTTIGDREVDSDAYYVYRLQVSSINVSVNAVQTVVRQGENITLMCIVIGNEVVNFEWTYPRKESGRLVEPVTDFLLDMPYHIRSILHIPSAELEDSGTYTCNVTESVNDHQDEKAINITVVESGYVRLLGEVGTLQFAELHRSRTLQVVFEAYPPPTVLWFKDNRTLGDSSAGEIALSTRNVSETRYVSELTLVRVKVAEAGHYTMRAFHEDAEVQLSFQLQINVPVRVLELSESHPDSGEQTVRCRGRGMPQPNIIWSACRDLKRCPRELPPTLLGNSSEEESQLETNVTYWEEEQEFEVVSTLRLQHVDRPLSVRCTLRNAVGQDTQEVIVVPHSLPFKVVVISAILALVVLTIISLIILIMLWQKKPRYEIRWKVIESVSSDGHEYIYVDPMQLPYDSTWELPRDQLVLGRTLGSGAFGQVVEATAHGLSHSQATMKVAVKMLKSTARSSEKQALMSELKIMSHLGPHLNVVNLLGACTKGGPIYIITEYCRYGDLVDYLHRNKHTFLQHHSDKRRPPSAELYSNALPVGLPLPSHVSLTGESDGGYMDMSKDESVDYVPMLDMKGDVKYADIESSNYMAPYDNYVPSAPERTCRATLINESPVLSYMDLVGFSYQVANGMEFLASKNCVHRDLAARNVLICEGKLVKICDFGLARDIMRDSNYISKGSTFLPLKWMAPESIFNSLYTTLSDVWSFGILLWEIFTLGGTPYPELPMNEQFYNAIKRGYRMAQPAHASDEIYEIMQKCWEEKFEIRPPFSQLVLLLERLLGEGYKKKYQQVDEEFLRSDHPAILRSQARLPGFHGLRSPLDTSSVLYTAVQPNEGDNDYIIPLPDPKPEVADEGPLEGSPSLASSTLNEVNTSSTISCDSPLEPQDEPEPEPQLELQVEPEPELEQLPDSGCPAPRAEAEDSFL

CK-1δ [7] = target: T2, CK-1δ; experiment: KinomeScan screening, CK-1δ; type: binding; conditions: 10 μM
[8] = system: TDP-43 phosphorylation (pS409/410) in HEK293 cells; experiment: Ethacrynic acid induced TDP-43 phosphorylation in HEK293 cells
[9] = PAMPA-BBB permeability assay; conditions: PAMPA vehicle PBS:EtOH (70:30)
CK-1δ [10] = target: T2, CK-1δ; type: biochemical
290 kinases panel = conditions: cited from earlier work
[11] = system: amyotrophic lateral sclerosis (ALS); conditions: ALS patients; cited from earlier work
[12] = HEK293, 1.5 h pretreatment, 150 μM ethacrynic acid

Chain of CK-1γ2 (P78368 whole entry): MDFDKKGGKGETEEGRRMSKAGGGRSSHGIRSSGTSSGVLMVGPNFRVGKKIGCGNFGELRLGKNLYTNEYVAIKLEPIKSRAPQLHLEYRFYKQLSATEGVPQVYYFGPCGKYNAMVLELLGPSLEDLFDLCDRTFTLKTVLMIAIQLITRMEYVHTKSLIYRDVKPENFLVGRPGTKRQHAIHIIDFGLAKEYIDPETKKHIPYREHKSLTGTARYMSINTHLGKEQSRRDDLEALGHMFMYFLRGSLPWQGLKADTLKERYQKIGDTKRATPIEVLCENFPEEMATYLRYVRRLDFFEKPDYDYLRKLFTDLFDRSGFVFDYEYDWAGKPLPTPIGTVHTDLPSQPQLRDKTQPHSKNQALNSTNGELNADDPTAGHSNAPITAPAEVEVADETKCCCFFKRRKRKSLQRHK

Q: For O=C(Cc1ccc(Cl)cc1)Oc1nc2ccccc2s1 [Compound 9, (Benzothiazol-2-yl)-2-(4-chlorophenyl)acetate], which “effect on fly lifespan” value [1] is on record?
A: did not significantly modify fly longevity

Q: For O=C(Cc1cccc(Cl)c1)Nc1nc2ccc(C(F)(F)F)cc2s1 [Compound 20, 2-(3-Chlorophenyl)-N-(6-(trifluoromethyl)benzothiazol-2-yl)acetamide], which “effect on fly lifespan” value [1] is on record?
A: significantly increased

Q: What about the “inhibition of CLK4” value (CDC like kinase 4 (CLK4)) of the same molecule?
A: inhibited

Q: What about the “inhibition of CK-1γ2” value (CK-1γ2) of the same molecule?
A: inhibited

Q: What about the “inhibition of MLCK” value [2] of the same molecule?
A: inhibited

Q: What about the “inhibition of CK-1α1” value (CK-1α1) of the same molecule?
A: inhibited

Q: And the “inhibition of CK-1ε” value (CK-1ε)?
A: inhibited

Q: What about the “inhibition of DYRK1A” value (DYRK1A) of the same molecule?
A: inhibited

Q: What about the “selectivity score (S score)” value [3] of the same molecule?
A: 0.04

Q: And the “mechanism of CK-1δ inhibition with respect to ATP” value (from here on “mechanism of CK-1δ inhibition”) (CK-1δ [4])?
A: ATP competitive inhibition

Q: What about the “inhibition of FLT1” value [5] of the same molecule?
A: inhibited

Q: What about the “inhibition of CLK1” value (CDC like kinase 1 (CLK1)) of the same molecule?
A: inhibited

Q: What about the “inhibition of DYRK1B” value (DYRK1B) of the same molecule?
A: inhibited

Q: And the “inhibition of PDGFRB” value [6]?
A: inhibited

Q: What about the “inhibition of CK-1δ” value (CK-1δ [7]) of the same molecule?
A: inhibited

Q: What about the “concentration with inhibition of TDP-43 phosphorylation” value [8, 12] of the same molecule?
A: above 80 μM

Q: For O=C(Cc1ccccc1Cl)Nc1nc2ccc(C(F)(F)F)cc2s1 [Compound 24, 2-(2-Chlorophenyl)-N-(6-(trifluoromethyl)benzothiazol-2-yl)acetamide], which “effect on fly lifespan” value [1] is on record?
A: significantly increased

Q: What about the “inhibition of CLK4” value (CDC like kinase 4 (CLK4)) of the same molecule?
A: inhibited

Q: What about the “solubility in the assay vehicle” value [9] of the same molecule?
A: low solubility

Q: And the “inhibition of CK-1γ2” value (CK-1γ2)?
A: inhibited

Q: What about the “inhibition of MLCK” value [2] of the same molecule?
A: inhibited

Q: What about the “inhibition of CK-1α1” value (CK-1α1) of the same molecule?
A: inhibited

Q: What about the “inhibition of CK-1ε” value (CK-1ε) of the same molecule?
A: inhibited

Q: What about the “inhibition of DYRK1A” value (DYRK1A) of the same molecule?
A: inhibited

Q: What about the “mechanism of CK-1δ inhibition” value (CK-1δ [4]) of the same molecule?
A: ATP competitive inhibition

Q: And the “inhibition of FLT1” value [5]?
A: inhibited

Q: What about the “inhibition of CLK1” value (CDC like kinase 1 (CLK1)) of the same molecule?
A: inhibited

Q: What about the “inhibition of DYRK1B” value (DYRK1B) of the same molecule?
A: inhibited

Q: And the “inhibition of PDGFRB” value [6]?
A: inhibited

Q: What about the “inhibition of CK-1δ” value (CK-1δ [7]) of the same molecule?
A: inhibited

Q: And the “concentration with moderate inhibition of TDP-43 phosphorylation” value [8, 12]?
A: ≥ 1.25 µM

Q: Which results are given for COc1ccccc1CC(=O)Nc1nc2ccc(C(F)(F)F)cc2s1 [Compound 34, N-(6-(Trifluoromethyl)benzothiazol-2-yl)-2-(2-methoxyphenyl)acetamide]?
A: mechanism of CK-1δ inhibition with respect to ATP (CK-1δ [4]): ATP competitive inhibition; concentration with inhibition of TDP-43 phosphorylation [8, 12]: above 80 μM

Q: What does the source list for COc1ccc2nc(NC(=O)Cc3ccccc3OC)sc2c1 [Compound 35, N-(6-Methoxybenzothiazol-2-yl)-2-(2-methoxyphenyl)acetamide]?
A: effect on fly lifespan [1]: significantly increased; fold less potent than 20 and 24 as CK-1δ inhibitor (CK-1δ [10]): 100 fold

Q: Which “concentration giving significant reduction of TDP-43 phosphorylation” value [8, 12] does the source give for COc1cccc(CC(=O)Nc2nc3ccc(C(F)(F)F)cc3s2)c1 [Compound 38, N-(6-(Trifluoromethyl)benzothiazol-2-yl)-2-(3-methoxyphenyl)acetamide] here?
A: 5 µM

Q: Which “fold reduction in TDP-43 phosphorylation” value ([8]; HEK293, by 10 μM inhibitor) does the source give for O=C(Cc1cccc(C(F)(F)F)c1)Nc1nc2ccc(C(F)(F)F)cc2s1 [Compound 41, N-(6-(Trifluoromethyl)benzothiazol-2-yl)-2-(3-(trifluoromethyl)phenyl)acetamide] here?
A: greater than 2 fold

Q: For O=C(Cc1ccccc1)Nc1nc2ccc(C(F)(F)F)cc2s1 [Compound 46, N-(6-(Trifluoromethyl)benzothiazol-2-yl)-2-phenylacetamide], which “concentration with nearly complete absence of TDP-43 phosphorylation” value ([8]; HEK293, 1.5 h pretreatment, 150 μM ethacrynic acid, range 1.25-160 μM) is on record?
A: ≥ 2.5 µM

Q: Which “mechanism of CK-1δ inhibition” value (CK-1δ [4]) does the source give for COc1cc(OC)c(C=C2C(=O)Nc3ccccc32)c(OC)c1 [IC261, reference compound] here?
A: ATP competitive inhibitor

Q: For CS(=O)(=O)CCNCc1ccc(-c2ccc3ncnc(Nc4ccc(OCc5cccc(F)c5)c(Cl)c4)c3c2)o1 [Lapatinib], which S score (290 kinases panel) is on record?
A: 0.010

Q: With Nc1nc2ccc(OC(F)(F)F)cc2s1 [Riluzole] as the molecule, how does the extension of survival [11] read?
A: 2–3 months

Q: With CCN(CC)CCNC(=O)c1c(C)[nH]c(/C=C2\C(=O)Nc3ccc(F)cc32)c1C [Sunitinib] as the molecule, how does the S score (290 kinases panel) read?
A: 0.57
